The text below walks through data of patent publication US20030073729A1, “Medicaments for diabetic complication and neuropathy, and uses thereof” (AJINOMOTO CO. INC, priority 2000, published 2003).

In assay [1] the test system is GK rat. The assay is described as follows: Motor nerve conduction velocity (tail nerve) in GK rats. The class given is in vivo. As to conditions: 23 weeks after start of oral administration twice a day, glibenclamide 1 mg/kg, nateglinide 50 mg/kg, control group 48.2±1.3, normal control 55.2±1.8. As for the experimental part: An animal test was conducted on a set of the following four groups, and nateglinide and glibenclamide were each suspended into 0.5% methyl cellulose (MC) to give a solution for administration.
GKrats( :male) as a spontaneous diabetic model and normal Wistar rats ( : male) were introduced at the age of 6 weeks.
From the age of 7 weeks, they were kept under a light control (dark term: 7:00 a.m. to 7:00 p.m.; light term: 7:00 p.m. to next morning 7:00) in a feeding limit condition, in which a feed was given twice a day, each only for 1 hour at an interval of 6 hours (9:00 a.m. to 10:00 a.m., and 3:00 p.m. to 4:00 p.m.).
Everyday from the age of 14 weeks, 0.5% MC, glibenclamide (1 mg/kg) or nateglinide (50 mg/kg) was forcibly administered orally just before each feeding twice a day (at 9:00 a.m. and 3:00 p.m.) at an interval of 6 hours.
Twenty-three weeks after the start of the drug administration (the age of 37 weeks), in order to examine an influence on diabetic complications, the motor nerve conduction velocity was measured according to the method described in Cameronetal., Diabetologia, Vol.39, p.1047-1054 (1996), using a tail nerve.

The test system of assay [2] is GK rat. Description: Total cholesterol concentration in blood plasma of GK rats. The class given is in vivo. As to conditions: fasted 17 hours, 4, 14 and 23 weeks after start of administration, glibenclamide 1 mg/kg, nateglinide 50 mg/kg twice a day, FIG. 2. As for the experimental part: In the same manners as those in the Example 1, the groups formation for the test animals, the feeding of the animals and the administration of medicinal compounds (drug) to be tested to the animals were performed. At one week before the start of the drug administration (the age of 13 weeks) for the animals, and at four weeks (the age of 18 weeks), fourteen weeks (the age of 28 weeks) and twenty-three weeks (the age of 37 weeks) each after the start of the drug administration, the blood samples were taken from the jugglar vein after fasting (abstinence from food) for 17 hours. The total cholesterol concentration in the blood plasma was measured by means of the cholesterol oxidase test method using the Fuji […] analyzer.

Assay [3] deals with Zucker Fatty rat. Description: Triglyceride concentration in blood plasma after fat emulsion loading, Zucker Fatty rat. The class given is in vivo. As to conditions: for area under the curve (AUC) of the triglyceride until four hours after the load: Zucker Fatty rat, fat emulsion load, nateglinide 50 mg/kg or voglibose 0.2 mg/kg orally. As for the experimental part:
(§1) Using the postprandial hyper lipemiamodel rats (10rats) thus obtained, in a crossover method, an influence of the drug administered on a triglyceride concentration in blood plasma (a postprandial hyperlipemia- suppressing effect) was examined. That is, nateglinide (50 mg/kg) or voglibose (0.2 mg/kg), an alpha-glucosidase inhibitor as a control was administered orally, just before loading with the fat emulsion, and the blood samples were taken from a tail vein with time by four hours after the administration.
(§2) A triglyceride concentration in the blood plasma was measured by means of the Fuji Drichem analyzer.
The same examinations were also conducted with the use of a Zucker Fatty rat which is another hyperlipidemic animal.
As a result of fractional analysis of lipoprotein by means of anagarose gel electrophoresis, amarked increase of fractions in the origin area and pre β subfractions, which are thought to contain chylomicron, VLDL (very low density lipoprotein) and so on which are said to correlate with an angiopathy and an arteriosclerosis was observed.

Assay [4] has as its system Na^+/K^+-ATPase activity in the sciatic nerve. The assay is described as follows: Na+/K+-ATPase activity in sciatic nerve of GK rats. The class given is in vivo. The conditions noted are these: GK rat, 23 weeks after start of oral administration, nateglinide 50 mg/kg twice a day; control group 87.6±9.8, normal control 110.5±7.7. As for the experimental part:
In the same manners as those in the Example 1, the group formation for the test animals, the feeding of the animals and the administration of medicinal compounds (drug) to be tested to the animals were performed. At twenty-three weeks after the start of the drug administration (the age of 37 weeks), the rats were killed and the sciatic nerves were excised. A Na^+/K^+-ATPase activity in the sciatic nerve was measured based on the method described in Green et al., Journal of Clinical Investigation, vol.72, 1058-1063 (1983).

Assay [5] concerns vWF concentration in the serum. Description: vWF concentration in serum of GK rats (ELISA). The class given is in vivo. As to conditions: GK rat, 23 weeks after start of administration, nateglinide 50 mg/kg twice a day; relative to normal control group 100; control group 184.8±24.3. As for the experimental part:
In the same manners as those in the Example 1, the feeding of the animals for the test animals and the administration of medicinal compounds (drug) to be tested to the animals were performed. At twenty-three (23) weeks after the start of the drug administration (the age of 37 weeks), the blood samples were taken from the postcaval vein. The vWF concentration in the serum was measured by means of the ELISA method using anti-human vWF antibody (made by DAKO Co.).

Assay [6] has as its system GK rats. The assay is described as follows: Triglyceride concentration in blood plasma after fat emulsion loading, GK rats. The class given is in vivo, rat. The conditions noted are these: fat emulsion (Intralipos, 2 g/kg) load, crossover, nateglinide 50 mg/kg or voglibose 0.2 mg/kg orally just before loading. On the procedure:
as §1, §2

In the case of `COc1ccc(Cl)cc1C(=O)NCCc1ccc(S(=O)(=O)NC(=O)NC2CCCCC2)cc1` [glibenclamide], in assay [1], the “motor nerve conduction velocity” value amounted to 52.3±0.9 m/sec. Also, the “total cholesterol concentration in the blood plasma” value in assay [2] was “change in the cholesterol value was not observed”.
In the case of `CC(C)[C@H]1CC[C@H](C(=O)N[C@H](Cc2ccccc2)C(=O)O)CC1` [nateglinide, (−)-N-(trans-4-isopropylcyclohexane-carbonyl)-D-phenylalanine], the “area under the curve (AUC) of the triglyceride until four hours after the load” value in assay [3] was determined as 15 ± 69 mg·h/dL. Besides, the “increase of lipoprotein fractions in the origin area and pre β subfractions (agarose gel electrophoresis)” value in assay [3] (after fat emulsion load, fractions thought to contain chylomicron, VLDL) is on record as “suppressed”. For the same compound, the “motor nerve conduction velocity” value in assay [1] is 55.9±1.3 m/sec. In addition, the “Na^+/K^+-ATPase activity in the sciatic nerve” value in assay [4] was 99.5±7.6 μmol ADP/g/hr. Moreover, the “total cholesterol concentration in the blood plasma” value in assay [2] is “marked decrease”. Further, in assay [5], the “vWF concentration in the serum” value is listed as 124.5±21.5%. The “increase of area under the curve (AUC) of the triglyceride during four hours after the loading” value in assay [6] is 81 ± 22 mg·h/dL.
Regarding `OCC(CO)N[C@H]1C[C@](O)(CO)[C@@H](O)[C@H](O)[C@H]1O` [voglibose], the “area under the curve (AUC) of the triglyceride until four hours after the load” value in assay [3] is 501 ± 112 mg·h/dL. Besides, the “increase of area under the curve (AUC) of the triglyceride during four hours after the loading” value in assay [6] was found to be 164 ± 17 mg·h/dL.
